Article PMC8624998, “Synthesis and Antiproliferative Evaluation of 3-Chloroazetidin-2-ones with Antimitotic Activity: Heterocyclic Bridged Analogues of Combretastatin A-4” (Pharmaceuticals, 2021)

Tests used:
Bcl-2 = assay: Western blot analysis; format: cell-based, human; conditions: MCF-7, 0.05, 0.1 and 0.5 μM, 48 or 72 h
Excerpt: (§1) The apoptosis regulating proteins Bcl-2 and Mcl-1 were next investigated. The anti-apoptotic or pro-survival Bcl-2 protein is also a member of the Bcl-2 family. It prevents the release of a pro-apoptotic AIF (apoptosis inducing factor) and cytochrome c from the mitochondria into the cytoplasm and prevents apoptosis by sequestering caspases (apoptosis promoters). […] (Figure 9). Mcl-1 protein (an induced myeloid leukaemia cell differentiation protein) is another key anti-apoptotic member of the Bcl-2 family and is localised in the mitochondrial outer membrane. It binds and sequesters the pro-apoptotic Bax/Bak proteins and, thus, prevents the release of cytochrome c. Overexpression of the anti-apoptotic factors Mcl-1, Bcl-2 and Bcl-xL in acute myeloid leukaemia and acute lymphocytic leukaemia may be associated dysregulation of apoptosis. […] (Figure 10). Apoptosis can be triggered by a reduction in the expression levels of Mcl-1 and Bcl-2 (e.g., by drug treatment). […]
(§2) MCF-7 cells were seeded at a density of 1 × 10^5 cells/flask in T25 flasks. […] Equal quantities of protein (as determined using a BCA assay) were resolved by SDS-PAGE (12%) followed by transfer to PVDF membranes. […] Proteins were detected using enhanced chemiluminescent Western blot detection (Clarity Western ECL substrate) (Bio Rad) on the ChemiDoc MP System (Bio Rad). […]

Mcl-1 = assay: Western blot analysis; format: cell-based, human; conditions: MCF-7, 0.05, 0.1 and 0.5 μM, 48 or 72 h
Excerpt: as §1, §2

COc1ccc(C2C(Cl)C(=O)N2c2cc(OC)c(OC)c(OC)c2)cc1O (centres unmarked) [Compound 10n, 3-Chloro-4-(3-hydroxy-4-methoxy-phenyl)-1-(3,4,5-trimethoxyphenyl)azetidin-2-one]
level of anti-apoptotic protein Bcl-2 (Bcl-2): downregulated in a dose-dependent manner
level of anti-apoptotic protein Mcl-1 (Mcl-1): downregulated in a dose-dependent manner
